# From patent US20100160443A1, “COMPOUNDS USEFUL FOR TREATING NEUROLOGICAL DISORDERS” (Yissum Research Development Company of The Hebrew …, priority 2003, published 2010)
# “Also recorded” adds a separate entry of the source. Read-outs that look alike come from different tables or passages of the source. Marks after values point to notes of the source that are not given here.
# Key:
# [1] = cited from earlier work
# [2] = test system: tactile allodynia in rats with SNL neuropathy; settings: i.p., rat; literature data (footnoted); cited from earlier work
# [3] = test system: maximal electroshock (MES) test; settings: rat, cited from earlier work
# [4] = test system: tactile allodynia in rats with SNL neuropathy; assay: Tactile allodynia (von Frey filaments) in the spinal nerve ligation (SNL) model of neuropathic pain; format: in vivo, rat; settings: for ED50: Rattus norvegicus, 1 h, read-out: ED50 (tactile allodynia threshold)
# Description: The effect on neuropathic pain (tactile allodynia) was measured 5-6 days following operation as disclosed above. Rats responding to mechanical stimuli of 10 g or less (in the operated leg) were eligible for the study and were included in the drug administration regime.
# Briefly, under ketamine-xylazine anesthesia the rat was placed in a prone position and the left paraspinal muscles were separated from spinous processes at the L4-S2 level. Part of the L6 transverse process was removed and the L4-L6 spinal nerves were identified. The L5-L6 spinal nerves were isolated and tightly ligated and cut, distal to the dorsal root ganglion and proximal to the formation of the sciatic nerve. Following complete homeostasis the wound was sutured.
# A volume of 4 ml/kg (volume of injected suspension/rat body weight) was then injected to the rats. […] The three drugs and the control vehicle were administered i.p. (intraperitoneally) to rats at postoperative days 7, 14 and 21 in a double blind randomized crossover manner.
# The rat was placed on a metal mesh floor covered with a transparent plastic dome, a period of acclimatization was allowed prior to testing. VFFs were applied from underneath the mesh floor to the plantar surface of the foot. Each trial consisted of repeated applications of each of the VFFs in an ascending order for 5 times, each for a period of 1 second. testing between two consecutive ascending VFFs was separated by period of 2 min. If the rat withdrew the foot at least 3 times out of 5 at a specific VFF no further ascending filaments were tested and this filament was considered as a withdrawal threshold (response). Mechanical stimulus trials with the series of ascending VFF were repeated 2 times for a given time point. The repeated measurements were averaged and taken as the paw withdrawal threshold on a given time point.
# The absolute threshold and the difference in the allodynic threshold (time point minus baseline) values were tested using Mann-Whitney Test and Kruskal-Wallis Nonparametric test (two tailed) followed by Dunn's Multiple comparison test. The ED50 (median effective dose) was calculated by using Probit analysis method.
# Briefly, under ketamine-xylazine anesthesia (85 mg kg^−1, i.p and 13 mg kg^−1, i.p, respectively) rats were placed in a prone position and paraspinal muscles on the left were separated from the L4-S2 spinous processes. Part of the L6 transverse process was removed and the underlying L4-L6 spinal nerves were identified. The L5 and L6 spinal nerves were isolated, tightly ligated with 5-0 silk, and cut just distal to the ligature. The ligature was approximately 8 mm distal to the corresponding dorsal root ganglion (DRG). Following complete homeostasis the wound was sutured in layers, the skin closed with Michel clips, topical bacteriostatic power was applied, and 20000 units of duplo-penicillin was injected intramuscularly (i.m.).
# We used a set of 9 nylon von Frey monofilaments (VFF, Semmes-Weinstein monofilaments, Stoelting, Wood Dale, Ill., USA) to quantify foot withdrawal in response to normally innocuous tactile stimuli. […] Forces were calibrated by lowering filaments onto the pan of an electronic balance until they just bent.
# Rats were placed on a raised wire mesh screen (gaps 4 mm×4 mm), which allowed access to the plantar surface of the hindpaw from below. They were covered with a transparent plastic dome, 13 cm high, which prevented rearing on the hindlimbs. A period of 20 min was allowed for acclimation prior to sensory testing. The mid-plantar hindpaw skin just caudal to the footpads, half way between medial and lateral edges of the foot, was subjected to a series of 5 brief probes, spaced at about 1 s. Each such stimulus was sufficient to just bend the filament. Testing began with the filament with the weakest initial bending force (0.6 g). […] Response threshold was the bending force of the first monofilament in the series that evoked a criterion ≧⅗ responses.
# [5] = test system: neural tube defects (NTDs); settings: cited from earlier work
# [6] = test system: maximal electroshock (MES) test; assay: Anticonvulsant activity, maximal electroshock (MES) test; format: in vivo; settings: different study, data not shown
# Text: Pain 73, 223-230); Blom, 1962 (BLOM, S. (1962). Trigeminal neuralgia: its treatment with a new anticonvulsant drug. Lancet; 1, 839-840); Rogawski & Loscher, 2004b (ROGAWSKI, M. A., & LOSCHER, W. (2004b). The neurobiology of antiepileptic drugs for the treatment of nonepileptic conditions. Nat. Med., 10, 685-692)). The availability of ED50 data for a series of new anticonvulsant isomers and analogues of VPD (valpromide) provides an opportunity for testing this hypothesis. […] Philadelphia: Lippincott Williams & Wilkins)).
# [7] = test system: motor performance (rotarod test); assay: Neurological motor dysfunction tests (accelerating rotarod, observation for sedation)
# Description: On the day of testing, a baseline response was obtained, and rats were subsequently administered drug or vehicle. […] In addition, we examined our rats individually for signs of motor dysfunction and sedation as assessed by posture and gate during spontaneous and induced movement, grooming, chewing, stepping reflex, and startle reflex evoked by tapping on the cage.
# For each drug and dose, attenuation of tactile allodynia (threshold measured in g) was measured. […] These areas under the response curve values for every group of rats per dose were evaluated against vehicle treatment using the nonparametric Wilcoxon one tailed test (dose of drug tested vs. vehicle on the same treatment). […] A p value <0.05 was considered statistically significant.
# [8] = p.o., taken from previous studies
# [9] = i.p., rat, 60 min post injection, DID at 120 min
smiles,measurement,setting,value
"NC(=O)N1c2ccccc2C=Cc2ccccc21 [CBZ, carbamazepine]",Brain-to-plasma ratio,[1]; literature data,1.0^i
same,SNL-ED50,[2],>30^c mg kg^−1
same,MES-ED50,[3]; [8],5.4^a mg kg^−1
"CC(C)C(C(=O)O)C(C)C [DIA, diisopropylacetic acid]",antiallodynic effect / effectiveness for treating neuropathic pain,"[4]; rat, in vivo",effective for treating neuropathic pain
same,SNL-ED50,"[4]; rat, in vivo, ip",>300 mg/kg
same,lowest effective dose (significant increase of the allodynic threshold vs vehicle),"[4]; rat, in vivo, ip",300 mg/kg
same,rats regarded as protected at the highest dose,"[4]; rat, in vivo, ip",25%
"NC(=O)OCC(COC(N)=O)c1ccccc1 [FBM, felbamate]",Brain-to-plasma ratio,[1]; literature data,0.64^f
same,SNL-ED50,[2],>600^d mg kg^−1
same,MES-ED50,[3]; [8],25.3^a mg kg^−1
"NCC1(CC(=O)O)CCCCC1 [GBP, gabapentin]",Brain-to-plasma ratio,"[1]; rat, in vivo",0.85^e
same,SNL-ED50,[2],34^d mg kg^−1
same,MES-ED50,"[3]; in vivo, po",14.8^a mg kg^−1
"Nc1nnc(-c2cccc(Cl)c2Cl)c(N)n1 [LTG, lamotrigine]",Brain-to-plasma ratio,[1]; literature data,0.4^h
same,SNL-ED50,[2],>100^d mg kg^−1
same,MES-ED50,[3]; [8],1.3^a mg kg^−1
"CNC(=O)C1C(C)(C)C1(C)C [M-TMCD, N-methyl-2,2,3,3-tetramethylcyclopropanecarboxamide]",ED50,[4]; ip,41 mg/kg
same,antiallodynic effect / effectiveness for treating neuropathic pain,"[4]; rat, in vivo",effective for treating neuropathic pain
same,dose dependence of the antiallodynic effect,"[4]; rat, in vivo, ip",in a dose dependent manner
same,time of maximal effect after administration,"[4]; rat, in vivo, ip",60 min
same,teratogenicity,[5]; in vivo,lack of teratogenicity
"CCCC(CCC)C(=O)NC [MVPD, N-methyl-valpromide, reference compound]",SNL-ED50,[4]; [9],>120 mg/kg
same,MES-ED50,[3]; [8],65 mg/kg
"CC1(C)C(C(=O)O)C1(C)C [TMCA, 2,2,3,3-tetramethylcyclopropanecarboxylic acid]",antiallodynic effect / effectiveness for treating neuropathic pain,"[4]; SNL model, rat",exhibit antiallodynic effect
same,anticonvulsant activity in the rat-MES test,[6],without any anticonvulsant activity
"CC1(C)C(C(N)=O)C1(C)C [TMCD, 2,2,3,3-tetramethylcyclopropanecarboxamide]",ED50,[4]; ip,84.5 mg/kg
same,antiallodynic effect / effectiveness for treating neuropathic pain,"[4]; rat, in vivo",exhibit antiallodynic effect; also recorded: effective for treating neuropathic pain
same,dose dependence of the antiallodynic effect,"[4]; rat, in vivo, ip",in a dose dependent manner
same,time of maximal effect after administration,"[4]; rat, in vivo, ip",60 min
same,anticonvulsant activity in the rat-MES test,[6],without any anticonvulsant activity
"CCC(C)C(CC)C(=O)O (stereo not shown) [VCA, 2-ethyl-3-methyl-pentanoic acid]",SNL-ED50,[4]; [9],>300 mg/kg
"CCC(C)C(CC)C(N)=O (stereo not shown) [VCD, 2-ethyl-3-methyl-pentanoic acid amide]",ED50,[4]; ip,52.3 mg/kg
same,dose dependence of the antiallodynic effect,"[4]; i.p., rat",in a dose dependent manner
same,antiallodynic effect / effectiveness for treating neuropathic pain,"[4]; rat, in vivo",effective for treating neuropathic pain
same,SNL-ED50,"[4]; rat, in vivo, ip",52 mg/kg
same,time of maximal effect after administration,"[4]; rat, in vivo, ip",60 min
same,neurological motor dysfunction or sedation at the highest drug dose tested,"[7]; highest drug dose tested, normal rats",not sufficient to cause neurological motor dysfunction or sedation
same,MES-ED50,[3]; [8],29^c mg kg^−1
same,teratogenicity,[5]; literature,distinctly less teratogenic than VPA
"CCCC(CCC)C(N)=O [VPD, valpromide, reference compound]",Brain-to-plasma ratio,[1]; literature data,0.84^c
same,SNL-ED50,[4]; [9],61 mg/kg
same,neurological motor dysfunction or sedation at the highest drug dose tested,"[7]; rat, in vivo",not sufficient to cause neurological motor dysfunction or sedation
same,MES-ED50,[3]; [8],32^b mg kg^−1
